Assays:
VEGFR2 = VEGFR2 (Homo sapiens (Human), UniProt P35968); test: VEGFR2 Cellular Assay (VEGF induced intracellular calcium, FLIPR, HUVEC); format: cell-based; conditions: VEGF165 stimulation (10 ng/mL)
Method: (§1) VEGFR2 Cellular Assay Automated FLIPR (Fluorometric Imaging Plate Reader) technology was used to screen for inhibitors of VEGF induced increases in intracellular calcium levels in fluorescent dye loaded endothelial cells. HUVEC (human umbilical vein endothelial cells) (Clonetics) were seeded in 384-well fibronectin coated black-walled plates overnight @ 37° C./5% CO2. Cells were loaded with calcium indicator Fluo-4 for 45 minutes at 37° C. Cells were washed 2 times (Elx405, Biotek Instruments) to remove extracellular dye. For screening, cells were pre-incubated with test agents for 30 minutes, at a single concentration (10 uM) or at concentrations ranging from 0.0001 to 10.0 uM followed by VEGF165 stimulation (10 ng/mL). Changes in fluorescence at 516 nm were measured simultaneously in all 384 wells using a cooled CCD camera. Data were generated by determining max-min fluorescence levels for unstimulated, stimulated, and drug treated samples. IC50 values for test compounds were calculated from % inhibition of VEGF stimulated responses in the absence of inhibitor.

PDGFRβ [1] = target: T1, PDGFRβ (Homo sapiens (Human), UniProt P09619); test: PDGFRβ Cellular Assay (PDGF-induced intracellular calcium, FLIPR, NHDF-Ad); format: cell-based; conditions: PDGF-BB stimulation (30 ng/mL)
Method: as §1, with “Automated” for “VEGFR2 Cellular Assay Automated”, “of PDGF-induced” for “of VEGF induced”, “[…]. NHDF-Ad (Normal Human Dermal Fibroblasts, Adult; Lonza)” for “cells. HUVEC (human umbilical vein endothelial cells) (Clonetics)”, “by PDGF-BB” for “by VEGF165”, “stimulation (30” for “stimulation (10”, “of PDGF-BB” for “of VEGF”
Target sequence in this assay (P09619 33-1106): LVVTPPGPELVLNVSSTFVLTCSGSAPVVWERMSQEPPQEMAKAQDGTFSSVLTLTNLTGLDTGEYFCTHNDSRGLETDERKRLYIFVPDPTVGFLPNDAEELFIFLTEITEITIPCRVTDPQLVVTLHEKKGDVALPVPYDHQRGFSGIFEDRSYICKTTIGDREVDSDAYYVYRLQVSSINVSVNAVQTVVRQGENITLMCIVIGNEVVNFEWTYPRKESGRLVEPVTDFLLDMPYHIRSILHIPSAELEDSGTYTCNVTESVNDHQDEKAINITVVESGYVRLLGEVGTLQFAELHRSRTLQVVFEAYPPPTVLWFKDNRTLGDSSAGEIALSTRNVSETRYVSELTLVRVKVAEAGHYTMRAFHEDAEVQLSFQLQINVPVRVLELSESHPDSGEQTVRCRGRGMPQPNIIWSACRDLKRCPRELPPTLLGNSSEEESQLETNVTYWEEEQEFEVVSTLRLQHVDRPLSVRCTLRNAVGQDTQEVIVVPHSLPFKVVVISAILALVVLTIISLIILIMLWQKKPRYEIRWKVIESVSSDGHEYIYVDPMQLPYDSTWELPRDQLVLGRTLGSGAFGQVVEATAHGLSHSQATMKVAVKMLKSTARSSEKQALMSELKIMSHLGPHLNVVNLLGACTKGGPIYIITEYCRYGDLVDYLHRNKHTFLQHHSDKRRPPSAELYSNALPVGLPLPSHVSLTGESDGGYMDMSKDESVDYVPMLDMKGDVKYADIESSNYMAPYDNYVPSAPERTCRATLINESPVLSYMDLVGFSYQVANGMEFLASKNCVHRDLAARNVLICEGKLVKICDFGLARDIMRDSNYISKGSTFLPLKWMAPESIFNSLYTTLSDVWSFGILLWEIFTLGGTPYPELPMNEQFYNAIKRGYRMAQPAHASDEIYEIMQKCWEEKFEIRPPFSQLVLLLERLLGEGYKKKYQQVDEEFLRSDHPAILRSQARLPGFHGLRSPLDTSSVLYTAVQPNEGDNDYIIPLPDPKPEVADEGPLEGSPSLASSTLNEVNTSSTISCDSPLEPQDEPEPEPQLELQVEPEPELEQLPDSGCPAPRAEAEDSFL

VEGFR2 (KDR) = VEGFR2 (KDR) (Homo sapiens (Human), UniProt P35968); test: VEGFR2 Kinase Assay; format: biochemical; conditions: purified cytoplasmic domain KDR protein, 2.7 μM ATP; read-out: VEGFR2 Enzyme Assay (IC50 nM)
Method: VEGFR2 Kinase Assay Biochemical KDR kinase assays were performed in 96 well microtiter plates that were coated overnight with 75 μg/well of poly-Glu-[…]:1) in 10 mM Phosphate Buffered Saline (PBS), pH 7.4. […] Reactions were carried out in 100 μL reaction volumes containing 2.7 μM ATP in kinase buffer (50 mM Hepes buffer pH 7.4, 20 mM MgCl2, 0.1 mM MnCl2 and 0.2 mM Na3VO4). […] Reactions were initiated by the addition 20 ul per well of kinase buffer containing 200-300 ng purified cytoplasmic domain KDR protein (BPS Bioscience, San Diego, Calif.). Following a 15 minute incubation at 30° C., the reactions were washed 2 mls per well PBS-T. 100 μl of a monoclonal anti-phosphotyrosine antibody-peroxidase conjugate diluted 1:10,000 in PBS-T was added to the wells for 30 minutes. Following a 2 mls per well wash with PBS-Tween-20, 100 μl of 0-Phenylenediamine Dihydrochloride in phosphate-citrate buffer, containing urea hydrogen peroxide, was added to the wells for 7-10 minutes as a colorimetric substrate for the peroxidase. […] IC50 values for compound inhibition were calculated directly from graphs of optical density (arbitrary units) versus compound concentration following subtraction of blank values.

PDGFRβ [2] = target: T1, PDGFRβ; test: PDGFRβ Kinase Assay; format: biochemical; conditions: purified cytoplasmic domain PDGFR-b protein, 36 μM ATP; read-out: PDGFRβ Enzyme Assay (IC50 nM)
Method: Biochemical PDGFRβ kinase assays were performed in 96 well microtiter plates that were coated overnight with 75 μg of poly-Glu-Tyr (4:1) in 10 mM Phosphate Buffered Saline (PBS), pH 7.4.
PBS-T prior to starting the reaction. Reactions were carried out in 100 μL reaction volumes containing 36 μM ATP in kinase buffer (50 mM Hepes buffer pH 7.4, 20 mM MgCl2, 0.1 mM MnCl2 and 0.2 mM Na3VO4). […] Reactions were initiated by the addition 20 ul per well of kinase buffer containing 200-300 ng purified cytoplasmic domain PDGFR-b protein (Millipore). Following a 60 minute incubation at 30° C., the reactions were washed 2 mls per well PBS-T. 100 μl of a monoclonal anti-phosphotyrosine antibody-peroxidase conjugate diluted 1:10,000 in PBS-T was added to the wells for 30 minutes. Following a 2 mls per well wash with PBS-Tween-20, 100 μl of O-Phenylenediamine Dihydrochloride in phosphate-citrate buffer, containing urea hydrogen peroxide, was added to the wells for 7-10 minutes as a colorimetric substrate for the peroxidase. […] IC50 values for compound inhibition were calculated directly from graphs of optical density (arbitrary units) versus compound concentration following subtraction of blank values.
Target sequence in this assay (P09619 554-1106): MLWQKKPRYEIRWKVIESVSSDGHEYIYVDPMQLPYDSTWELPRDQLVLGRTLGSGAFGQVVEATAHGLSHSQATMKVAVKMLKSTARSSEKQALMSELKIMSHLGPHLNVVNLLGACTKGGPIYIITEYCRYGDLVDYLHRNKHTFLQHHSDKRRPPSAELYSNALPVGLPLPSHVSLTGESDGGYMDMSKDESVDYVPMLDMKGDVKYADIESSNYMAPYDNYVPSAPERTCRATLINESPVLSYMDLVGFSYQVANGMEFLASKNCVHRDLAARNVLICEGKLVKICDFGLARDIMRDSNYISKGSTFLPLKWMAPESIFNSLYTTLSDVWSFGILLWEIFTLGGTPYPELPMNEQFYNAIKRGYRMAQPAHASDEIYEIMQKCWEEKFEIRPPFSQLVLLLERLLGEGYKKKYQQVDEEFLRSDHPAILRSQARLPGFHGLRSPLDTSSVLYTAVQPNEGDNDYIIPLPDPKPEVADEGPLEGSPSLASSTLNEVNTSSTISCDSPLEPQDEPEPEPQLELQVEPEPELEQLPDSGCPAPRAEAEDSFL

VEGF permeability model = test: VEGF permeability model, intravitreal injection; format: in vivo; conditions: dosed by intravitreal injection

Sequence of VEGFR2 (P35968 20-1356): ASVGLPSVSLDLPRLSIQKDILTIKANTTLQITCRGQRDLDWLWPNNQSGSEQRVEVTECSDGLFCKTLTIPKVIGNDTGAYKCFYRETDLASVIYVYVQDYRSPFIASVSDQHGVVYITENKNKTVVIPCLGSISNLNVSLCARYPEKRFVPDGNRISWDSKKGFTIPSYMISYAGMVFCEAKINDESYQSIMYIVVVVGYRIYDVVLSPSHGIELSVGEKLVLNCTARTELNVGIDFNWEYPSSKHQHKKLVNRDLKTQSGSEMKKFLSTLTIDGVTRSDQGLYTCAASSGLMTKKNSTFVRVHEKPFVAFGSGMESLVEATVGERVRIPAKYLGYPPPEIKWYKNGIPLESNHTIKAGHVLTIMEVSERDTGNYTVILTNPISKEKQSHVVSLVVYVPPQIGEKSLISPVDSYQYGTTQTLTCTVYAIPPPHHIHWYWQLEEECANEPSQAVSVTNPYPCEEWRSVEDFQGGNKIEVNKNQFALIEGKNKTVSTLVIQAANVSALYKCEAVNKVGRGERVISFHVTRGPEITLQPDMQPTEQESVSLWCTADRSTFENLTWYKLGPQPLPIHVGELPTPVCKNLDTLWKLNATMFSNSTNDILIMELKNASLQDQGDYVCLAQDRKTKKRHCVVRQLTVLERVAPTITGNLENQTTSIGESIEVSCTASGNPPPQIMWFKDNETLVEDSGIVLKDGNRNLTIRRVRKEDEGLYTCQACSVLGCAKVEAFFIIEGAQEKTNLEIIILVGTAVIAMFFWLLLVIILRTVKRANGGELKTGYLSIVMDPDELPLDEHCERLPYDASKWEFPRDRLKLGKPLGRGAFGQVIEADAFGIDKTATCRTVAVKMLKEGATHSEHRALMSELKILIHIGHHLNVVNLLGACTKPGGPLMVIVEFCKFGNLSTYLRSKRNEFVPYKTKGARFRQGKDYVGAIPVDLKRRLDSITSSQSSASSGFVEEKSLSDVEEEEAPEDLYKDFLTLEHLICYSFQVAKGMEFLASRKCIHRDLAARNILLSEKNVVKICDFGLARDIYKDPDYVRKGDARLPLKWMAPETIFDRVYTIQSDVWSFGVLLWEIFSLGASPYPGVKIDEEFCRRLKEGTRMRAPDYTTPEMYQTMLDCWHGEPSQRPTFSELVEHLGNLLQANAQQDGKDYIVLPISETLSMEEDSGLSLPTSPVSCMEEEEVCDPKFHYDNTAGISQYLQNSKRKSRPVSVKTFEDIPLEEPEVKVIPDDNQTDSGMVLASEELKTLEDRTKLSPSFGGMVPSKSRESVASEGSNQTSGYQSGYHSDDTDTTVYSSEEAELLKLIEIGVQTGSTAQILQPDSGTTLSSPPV
Sequence of VEGFR2 (KDR) (P35968 786-1356): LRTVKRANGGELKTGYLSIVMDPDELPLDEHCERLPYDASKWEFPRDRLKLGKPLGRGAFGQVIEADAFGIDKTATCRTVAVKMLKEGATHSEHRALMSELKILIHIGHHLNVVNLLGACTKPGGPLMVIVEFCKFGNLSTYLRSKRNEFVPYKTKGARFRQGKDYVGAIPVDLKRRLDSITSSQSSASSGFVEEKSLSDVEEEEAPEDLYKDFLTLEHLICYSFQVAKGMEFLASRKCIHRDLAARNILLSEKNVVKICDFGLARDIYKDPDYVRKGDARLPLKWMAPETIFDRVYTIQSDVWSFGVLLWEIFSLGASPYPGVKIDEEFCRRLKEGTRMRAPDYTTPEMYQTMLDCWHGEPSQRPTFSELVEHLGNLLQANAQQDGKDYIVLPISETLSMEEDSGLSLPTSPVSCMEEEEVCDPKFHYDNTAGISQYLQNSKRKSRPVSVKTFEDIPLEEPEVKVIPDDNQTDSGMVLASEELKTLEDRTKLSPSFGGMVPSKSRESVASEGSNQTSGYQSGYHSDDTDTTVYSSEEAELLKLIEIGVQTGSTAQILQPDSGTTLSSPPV

| SMILES | IC50 (VEGFR2) [nM] | IC50 (PDGFRβ [1]) [nM] | IC50 (VEGFR2 (KDR)) [nM] | IC50 (PDGFRβ [2]) [nM] | in vivo efficacy in the VEGF permeability model (VEGF permeability model) |
| --- | --- | --- | --- | --- | --- |
| Cc1ccoc1C(=O)Nc1cccc(C#Cc2cc(C(=O)N=S(C)(C)=O)cnc2N)c1 [Example 1, 6-Amino-N-[dimethyl(oxido)-λ^4-sulfanylidene]-5-({3-[(3-methyl-2-furoyl)amino]phenyl}ethynyl)nicotinamide] | 1 | 11 | 6 | 16 |  |
| Cc1ccoc1C(=O)Nc1cccc(C#Cc2cncc(C(=O)N=S3(=O)CCCC3)c2)c1 [Example 3, 5-({3-[(3-Methyl-2-furoyl)amino]phenyl}ethynyl)-N-(1-oxidotetrahydro-1H-λ^4-thien-1-ylidene)nicotinamide] | 3 | 66 | 2 | 34 |  |
| Cc1ccoc1C(=O)Nc1cccc(C#Cc2cc(C(=O)N=S3(=O)CCCC3)cnc2N)c1 [Example 4, 6-Amino-5-({3-[(3-methyl-2-furoyl)amino]phenyl}ethynyl)-N-(1-oxidotetrahydro-1H-1λ^4-thien-1-ylidene)nicotinamide] | 2 | 15 | 2 | 30 |  |
| Cc1ccc(F)c(NC(=O)Nc2cccc(C#Cc3cncc(C(=O)N=S(C)(C)=O)c3)c2)c1 [Example 8, N-[Dimethyl(oxido)-λ^4-sulfanylidene]-5-{[3-({[(2-fluoro-5-methylphenyl)amino]carbonyl}amino)phenyl]ethynyl}nicotinamide] | 10 | 28 | 3 |  |  |
| COC(=O)CCCCS(C)(=O)=NC(=O)c1cnc(N)c(C#Cc2cccc(NC(=O)c3occc3C)c2)c1 (centres unmarked) [Example 23, Methyl 5-(N-{[6-amino-5-({3-[(3-methyl-2-furoyl)amino]phenyl}ethynyl)pyridin-3-yl]carbonyl}-S-methylsulfonimidoyl)pentanoate] | 1 | 31 | 7 | 54 | good in vivo efficacy |
| COC(=O)CCCCS(C)(=O)=NC(=O)c1cnc(N)c(C#Cc2cccc(NC(=O)c3cccc(C)c3)c2)c1 (centres unmarked) [Example 26, Methyl 5-(N-{[6-amino-5-({3-[(3-methylbenzoyl)amino]phenyl}ethynyl)pyridin-3-yl]carbonyl}-S-methylsulfonimidoyl)pentanoate] | 1 | 10 | 4 | 11 | good in vivo efficacy |
| COC(=O)CCCCS(C)(=O)=NC(=O)c1cnc(N)c(C#Cc2cccc(NC(=O)c3cc(C(F)(F)F)ccc3F)c2)c1 (centres unmarked) [Example 27, Methyl 5-[N-({6-amino-5-[(3-{[2-fluoro-5-(trifluoromethyl)benzoyl]amino}phenyl)ethynyl]pyridin-3-yl}carbonyl)-S-methylsulfonimidoyl]pentanoate] | 1 | 19 | 10 | 40 |  |
| COC(=O)CCCCS(C)(=O)=NC(=O)c1cnc(N)c(C#Cc2cccc(NC(=O)c3cccc(C(F)(F)F)c3)c2)c1 (centres unmarked) [Example 28, Methyl 5-[N-({6-amino-5-[(3-{[3-(trifluoromethyl)benzoyl]amino}phenyl)ethynyl]pyridin-3-yl}carbonyl)-S-methylsulfonimidoyl]pentanoate] | 4 | 12 | 4 | 9 |  |
| COC(=O)CCCCS(C)(=O)=NC(=O)c1cnc(N)c(C#Cc2cccc(NC(=O)c3ccc(Cl)c(C(F)(F)F)c3)c2)c1 (centres unmarked) [Example 29, Methyl 5-[N-({6-amino-5-[(3-{[4-chloro-3-(trifluoromethyl)benzoyl]amino}phenyl)ethynyl]pyridin-3-yl}carbonyl)-S-methylsulfonimidoyl]pentanoate] | 6 | 15 | 4 | 25 |  |
| COC(=O)CCCCS(C)(=O)=NC(=O)c1cnc(N)c(C#Cc2cccc(NC(=O)c3cccc(OC)c3)c2)c1 (centres unmarked) [Example 30, Methyl 5-(N-{[6-amino-5-({3-[(3-methoxybenzoyl)amino]phenyl}ethynyl)pyridin-3-yl]carbonyl}-S-methylsulfonimidoyl)pentanoate] | 1 | 9 | 5 | 14 | good in vivo efficacy |
| COC(=O)CCCCS(C)(=O)=NC(=O)c1cnc(N)c(C#Cc2cccc(NC(=O)c3ccc(OC)c(OC)c3)c2)c1 (centres unmarked) [Example 31, Methyl 5-(N-{[6-amino-5-({3-[(3,4-dimethoxybenzoyl)amino]phenyl}ethynyl)pyridin-3-yl]carbonyl}-S-methylsulfonimidoyl)pentanoate] | 4 | 13 | 15 | 38 |  |
| COC(=O)CCCC[S@](C)(=O)=NC(=O)c1cnc(N)c(C#Cc2cccc(NC(=O)c3occc3C)c2)c1 [Example 32, (S)-methyl 5-(N-{[6-amino-5-({3-[(3-methyl-2-furoyl)amino]phenyl}ethynyl)pyridin-3-yl]carbonyl}-S-methylsulfonimidoyl)pentanoate] | 1 | 60 | 3 | 31 | good in vivo efficacy |
| COC(=O)CCCC[S@@](C)(=O)=NC(=O)c1cnc(N)c(C#Cc2cccc(NC(=O)c3occc3C)c2)c1 [Example 33, (R)-Methyl 5-(N-{[6-amino-5-({3-[(3-methyl-2-furoyl)amino]phenyl}ethynyl)pyridin-3-yl]carbonyl}-S-methylsulfonimidoyl)pentanoate] | 1 | 86 | 6 | 27 | good in vivo efficacy |
| COC(=O)CCCCS(C)(=O)=NC(=O)c1cnc(N)c(C#Cc2cccc(C(=O)Nc3cc(C(C)(C)C)on3)c2)c1 (centres unmarked) [Example 36, Methyl 5-[N-({6-amino-5-[(3-{[(5-tert-butylisoxazol-3-yl)amino]carbonyl}phenyl)ethynyl]pyridin-3-yl}carbonyl)-S-methylsulfonimidoyl]pentanoate] | 1 | 18 | 10 |  |  |
| COC(=O)CCCCS(C)(=O)=NC(=O)c1cnc(N)c(C#Cc2cccc(NC(=O)Nc3cccc(C)c3)c2)c1 (centres unmarked) [Example 38, Methyl 5-{N-[(6-amino-5-{[3-({[(3-methylphenyl)amino]carbonyl}amino)phenyl]ethynyl}pyridin-3-yl)carbonyl]-S-methylsulfonimidoyl}pentanoate] |  | 25 | 4 | 13 |  |

— patent US9266869B2, “Substituted dialkyl(oxido)-lambda4-sulfanylidene nicotinamide derivatives as kinase inhibitors” (Allergan, Inc., priority 2013, dated 2016)
